Holding throughout (format): cell-based
The test system of one test is lung cancer cell lines. Description: small-molecule inhibitor screen, apoptosis in lung cancer cell lines. The note with it: AZD1775 in combination with cisplatin; multiple lung cancer cell lines. From the text:
Since posttranslational phosphorylations are used by the DDR to coordinate cellular response to damage, 18 kinases found in this tBRCT PPIN were examined using a small-molecule inhibitor screen.

Another test deals with WEE1. In words: p-CDC2 (p-CDK1) blots as marker for WEE1 inhibition in lung cancer cell lines. The note with it: 15 lung cancer cell lines; AZD1775 as single agent or in combination with cisplatin; in lines with detectable (or elevated) PAXIP1 and WEE1. From the text:
FIG. 2 is a series of blots showing PAXIP1, WEE1, and p-CDC2 (a.k.a. p-CDK1) levels in lung cancer cell lines treated with AZD1775 and Cisplatin. D: DMSO; M: AZD1775 only; C: Cisplatin only; M+C: AZD1775 and Cisplatin combination. AZD1775 is an ATP mimetic that targets the kinase activity of WEE1 and is currently being evaluated in clinical trials for several tumor types. Phosphorylation of CDC2 (a.k.a. CDK1) by WEE1 can be used as a marker for WEE1 inhibition.

Test [1] concerns H322 cells. Description: mitotic index at the G2/M checkpoint in H322 cells overexpressing full length PAXIP1. The note with it: H322 cells with overexpression of full length PAXIP1, after AZD1775 treatment.
The test system of test [2] is H322 cells. In words: caspase-3 mediated apoptosis in H322 cells overexpressing PAXIP1. Particulars: PAXIP1 overexpression, treated over 72 hours, compared to cells with low levels of PAXIP1.
Test [3] concerns lung cancer cell lines H322, H1648, H1395, H157. In words: cell viability by CellTiterGlo with synergy scores (Bliss model of independence). The note with it: cells that express both PAXIP1 and WEE1; 72 h treatment; combination with cisplatin. Here is the method:
Lung adenocarcinoma cell lines 1-H322 (FIGS. 5A, 5B), H1648 (FIGS. 5E, 5F) and H1395 (FIGS. 5G, 5H) and a squamous lung cancer cell line H157 (FIG. 5C, 5D) were treated with AZD1775 and cisplatin either alone or in combination for 1 h and p-CDK1, PAXIP1 and WEE1 levels were measured (FIGS. 5A, 5C, 5E, […]). Cell lines were treated with AZD1775 and cisplatin for 72 h, cell viability was measured by CellTiterGlo and synergy scores were calculated (FIGS. 5B, 5D, 5F, 5H). Depicted in FIGS. 5B, 5D, 5F, and 5H are the three-dimensional dose-response surface curves with various combinations of drug concentrations (left) and the deviation from expected additive values determined by Bliss model of independence (right).
(In general: In ATP-based viability assays light output follows the ATP content of the culture.)

For test [4], the system named is WEE1 and PAXIP1 positive patient-derived xenografts (PDX). Description: 3-D clonogenic assay of patient-derived xenograft (PDX) lung tumors, Chou-Talalay combination index. The note with it: combination with cisplatin. The text has this: Two tumors that were selected from a TMA of 68 lung tumors for 3-D clonogenic assays to test synergy of the combination of AZD1775 and cisplatin in these tumors. FIGS. 7A and 7C show percentage of tumor inhibition with different concentrations of AZD1775 and cisplatin. FIGS. 7B and 7D show combination index (CI) values obtained by applying the chou-[…] analysis to the percent inhibition values.
Background: A xenograft is tissue or cells of one species grown in another, often human tumour cells in immunodeficient mice.

For the molecule `C=CCn1c(=O)c2cnc(Nc3ccc(N4CCN(C)CC4)cc3)nc2n1-c1cccc(C(C)(C)O)n1` [AZD1775, 2-allyl-1-(6-(2-hydroxypropan-2-yl)pyridin-2-yl)-6-((4-(4-methylpiperazin-1-yl)phenyl)amino)-1H-pyrazolo[3,4-d]pyrimidin-3(2H)-one], the apoptosis result with lung cancer cell lines is recorded as “significant apoptosis”. Further, in the test with WEE1, the CDC2 phosphorylation result was “repression of CDC2 phosphorylation”. The “mitotic index at the G2/M checkpoint” value with H322 cells [1] was “increased mitotic index”. For the same molecule, the caspase-3 mediated apoptosis result with H322 cells [2] is “sustained increase in apoptosis”; in the test on H322 cells [2] (listed as AZD 1775), “sustained increase in caspase-3 mediated apoptosis”. The “synergy of AZD1775 and cisplatin (cell viability)” value in test [3] is “exhibit synergy”. Besides, the “synergy of AZD1775 and cisplatin (tumor inhibition, combination index)” value in test [4] is “exhibit synergy”.

The record behind these values is US20170003292A1, “PAXIP1 AS A BIOMARKER FOR WEE1 INHIBITOR THERAPY” (H. LEE MOFFITT CANCER CENTER AND RESEARCH INSTITUT INC., priority 2014, published 2017).
